Measured values from PubChem BioAssay (NCI).
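In this assay, cells in 96-well plates receive the compound at five concentrations for 48 hours. Endpoints are linearly interpolated between the surrounding concentrations. TGI: concentration producing complete growth inhibition.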

Experiments:
Assay in all cases: NCI tumour cell line growth inhibition, 48 h
HCT-116 colon = tested on: HCT-116 colon
MDA-N = tested on: MDA-N
SF-539 CNS = tested on: SF-539 CNS
TK-10 renal = tested on: TK-10 renal
OVCAR-3 ovarian = tested on: OVCAR-3 ovarian
SNB-19 CNS = tested on: SNB-19 CNS
NCI-H460 lung = tested on: NCI-H460 lung
BT-549 breast = tested on: BT-549 breast
SF-268 CNS = tested on: SF-268 CNS
SNB-75 CNS = tested on: SNB-75 CNS
UACC-62 melanoma = tested on: UACC-62 melanoma
SW-620 colon = tested on: SW-620 colon
HOP-62 NSCLC = tested on: HOP-62 NSCLC
MALME-3M melanoma = tested on: MALME-3M melanoma
HS 578T breast = tested on: HS 578T breast
IGROV1 ovarian = tested on: IGROV1 ovarian
SK-MEL-5 melanoma = tested on: SK-MEL-5 melanoma
LOX IMVI melanoma = tested on: LOX IMVI melanoma
ACHN renal = tested on: ACHN renal
DU-145 prostate = tested on: DU-145 prostate
786-0 renal = tested on: 786-0 renal
HOP-92 NSCLC = tested on: HOP-92 NSCLC
A549 NSCLC = tested on: A549 NSCLC
SR leukemia = tested on: SR leukemia
SF-295 CNS = tested on: SF-295 CNS
K-562 leukemia = tested on: K-562 leukemia
MDA-MB-231 breast = tested on: MDA-MB-231 breast
HL-60(TB) leukemia = tested on: HL-60(TB) leukemia
OVCAR-8 ovarian = tested on: OVCAR-8 ovarian
CAKI-1 renal = tested on: CAKI-1 renal
RXF 393 renal = tested on: RXF 393 renal
EKVX NSCLC = tested on: EKVX NSCLC
M14 melanoma = tested on: M14 melanoma
SK-OV-3 ovarian = tested on: SK-OV-3 ovarian
SN12C renal = tested on: SN12C renal
SK-MEL-28 melanoma = tested on: SK-MEL-28 melanoma
UACC-257 melanoma = tested on: UACC-257 melanoma
HCC-2998 colon = tested on: HCC-2998 colon
PC-3 prostate = tested on: PC-3 prostate
MOLT-4 leukemia = tested on: MOLT-4 leukemia
HT29 colon = tested on: HT29 colon
SK-MEL-2 melanoma = tested on: SK-MEL-2 melanoma
COLO 205 colon = tested on: COLO 205 colon
KM12 colon = tested on: KM12 colon
OVCAR-4 ovarian = tested on: OVCAR-4 ovarian
OVCAR-5 ovarian = tested on: OVCAR-5 ovarian
HCT-15 colon = tested on: HCT-15 colon
A498 renal = tested on: A498 renal
MCF7 breast = tested on: MCF7 breast
NCI-H226 lung = tested on: NCI-H226 lung
NCI/ADR-RES ovarian = tested on: NCI/ADR-RES ovarian
MDA-MB-435 = tested on: MDA-MB-435
UO-31 renal = tested on: UO-31 renal
CCRF-CEM leukemia = tested on: CCRF-CEM leukemia
NCI-H23 lung = tested on: NCI-H23 lung
U251 CNS = tested on: U251 CNS
T-47D breast = tested on: T-47D breast
RPMI-8226 leukemia = tested on: RPMI-8226 leukemia
NCI-H522 lung = tested on: NCI-H522 lung

CN1CC(c2ccccc2)N(CCCCN2CC(c3ccccc3)N(C)CC2c2ccccc2)CC1c1ccccc1 (centres undefined)
TGI (HCT-116 colon): 24.2 µM | TGI (MDA-N): > 100 µM | TGI (SF-539 CNS): > 100 µM | TGI (TK-10 renal): > 100 µM | TGI (OVCAR-3 ovarian): > 100 µM | TGI (SNB-19 CNS): > 100 µM | TGI (NCI-H460 lung): > 100 µM | TGI (BT-549 breast): > 100 µM | TGI (SF-268 CNS): > 100 µM | TGI (SNB-75 CNS): > 100 µM | TGI (UACC-62 melanoma): > 100 µM | TGI (SW-620 colon): > 100 µM | TGI (HOP-62 NSCLC): > 100 µM | TGI (MALME-3M melanoma): 81.8 µM | TGI (HS 578T breast): > 100 µM | TGI (IGROV1 ovarian): > 100 µM | TGI (SK-MEL-5 melanoma): > 100 µM | TGI (LOX IMVI melanoma): 39.1 µM | TGI (ACHN renal): > 100 µM | TGI (DU-145 prostate): > 100 µM | TGI (786-0 renal): > 100 µM | TGI (HOP-92 NSCLC): > 100 µM | TGI (A549 NSCLC): > 100 µM | TGI (SR leukemia): > 100 µM | TGI (SF-295 CNS): > 100 µM | TGI (K-562 leukemia): > 100 µM | TGI (MDA-MB-231 breast): > 100 µM | TGI (HL-60(TB) leukemia): > 100 µM | TGI (OVCAR-8 ovarian): > 100 µM | TGI (CAKI-1 renal): > 100 µM | TGI (RXF 393 renal): 71.1 µM | TGI (EKVX NSCLC): > 100 µM | TGI (M14 melanoma): > 100 µM | TGI (SK-OV-3 ovarian): > 100 µM | TGI (SN12C renal): > 100 µM | TGI (SK-MEL-28 melanoma): > 100 µM | TGI (UACC-257 melanoma): 42.6 µM | TGI (HCC-2998 colon): > 100 µM | TGI (PC-3 prostate): > 100 µM | TGI (MOLT-4 leukemia): > 100 µM | TGI (HT29 colon): > 100 µM | TGI (SK-MEL-2 melanoma): 81.2 µM | TGI (COLO 205 colon): > 100 µM | TGI (KM12 colon): > 100 µM | TGI (OVCAR-4 ovarian): > 100 µM | TGI (OVCAR-5 ovarian): > 100 µM | TGI (HCT-15 colon): > 100 µM | TGI (A498 renal): > 100 µM | TGI (MCF7 breast): > 100 µM | TGI (NCI-H226 lung): > 100 µM | TGI (NCI/ADR-RES ovarian): > 100 µM | TGI (MDA-MB-435): > 100 µM | TGI (UO-31 renal): > 100 µM | TGI (CCRF-CEM leukemia): > 100 µM

O=c1[nH]nc(Cc2ccc(Cl)cc2)n1O
TGI (HCT-116 colon): > 100 µM | TGI (MDA-N): > 100 µM | TGI (SF-539 CNS): > 100 µM | TGI (TK-10 renal): > 100 µM | TGI (OVCAR-3 ovarian): > 100 µM | TGI (SNB-19 CNS): > 100 µM | TGI (NCI-H460 lung): > 100 µM | TGI (SF-268 CNS): > 100 µM | TGI (UACC-62 melanoma): > 100 µM | TGI (SW-620 colon): > 100 µM | TGI (HOP-62 NSCLC): > 100 µM | TGI (MALME-3M melanoma): > 100 µM | TGI (NCI-H23 lung): > 100 µM | TGI (HS 578T breast): > 100 µM | TGI (IGROV1 ovarian): > 100 µM | TGI (SK-MEL-5 melanoma): > 100 µM | TGI (LOX IMVI melanoma): > 100 µM | TGI (ACHN renal): > 100 µM | TGI (DU-145 prostate): > 100 µM | TGI (786-0 renal): > 100 µM | TGI (HOP-92 NSCLC): > 100 µM | TGI (A549 NSCLC): > 100 µM | TGI (SR leukemia): > 100 µM | TGI (SF-295 CNS): > 100 µM | TGI (K-562 leukemia): > 100 µM | TGI (U251 CNS): > 100 µM | TGI (MDA-MB-231 breast): > 100 µM | TGI (HL-60(TB) leukemia): > 100 µM | TGI (T-47D breast): > 100 µM | TGI (OVCAR-8 ovarian): > 100 µM | TGI (CAKI-1 renal): > 100 µM | TGI (RXF 393 renal): > 100 µM | TGI (EKVX NSCLC): > 100 µM | TGI (M14 melanoma): > 100 µM | TGI (SK-OV-3 ovarian): > 100 µM | TGI (RPMI-8226 leukemia): > 100 µM | TGI (SN12C renal): > 100 µM | TGI (SK-MEL-28 melanoma): > 100 µM | TGI (UACC-257 melanoma): > 100 µM | TGI (HCC-2998 colon): > 100 µM | TGI (PC-3 prostate): > 100 µM | TGI (MOLT-4 leukemia): > 100 µM | TGI (HT29 colon): > 100 µM | TGI (SK-MEL-2 melanoma): > 100 µM | TGI (COLO 205 colon): > 100 µM | TGI (KM12 colon): > 100 µM | TGI (OVCAR-4 ovarian): > 100 µM | TGI (OVCAR-5 ovarian): > 100 µM | TGI (HCT-15 colon): > 100 µM | TGI (A498 renal): > 100 µM | TGI (MCF7 breast): > 100 µM | TGI (NCI-H226 lung): > 100 µM | TGI (NCI/ADR-RES ovarian): > 100 µM | TGI (MDA-MB-435): > 100 µM | TGI (UO-31 renal): > 100 µM | TGI (NCI-H522 lung): > 100 µM | TGI (CCRF-CEM leukemia): > 100 µM

O=C(O)c1ccc(Nc2nc3cc(C(F)(F)F)ccc3nc2C(=O)O)cc1
TGI (HCT-116 colon): > 100 µM | TGI (MDA-N): > 100 µM | TGI (OVCAR-3 ovarian): > 100 µM | TGI (SNB-19 CNS): > 100 µM | TGI (NCI-H460 lung): > 100 µM | TGI (BT-549 breast): > 100 µM | TGI (SF-268 CNS): > 100 µM | TGI (SNB-75 CNS): > 100 µM | TGI (SW-620 colon): > 100 µM | TGI (HOP-62 NSCLC): > 100 µM | TGI (MALME-3M melanoma): > 100 µM | TGI (NCI-H23 lung): > 100 µM | TGI (HS 578T breast): > 100 µM | TGI (IGROV1 ovarian): > 100 µM | TGI (SK-MEL-5 melanoma): > 100 µM | TGI (LOX IMVI melanoma): > 100 µM | TGI (ACHN renal): > 100 µM | TGI (DU-145 prostate): > 100 µM | TGI (786-0 renal): > 100 µM | TGI (SR leukemia): > 100 µM | TGI (SF-295 CNS): > 100 µM | TGI (K-562 leukemia): > 100 µM | TGI (U251 CNS): > 100 µM | TGI (MDA-MB-231 breast): > 100 µM | TGI (HL-60(TB) leukemia): > 100 µM | TGI (OVCAR-8 ovarian): > 100 µM | TGI (CAKI-1 renal): > 100 µM | TGI (RXF 393 renal): > 100 µM | TGI (EKVX NSCLC): > 100 µM | TGI (SN12C renal): > 100 µM | TGI (SK-MEL-28 melanoma): > 100 µM | TGI (HCC-2998 colon): > 100 µM | TGI (PC-3 prostate): > 100 µM | TGI (MOLT-4 leukemia): > 100 µM | TGI (HT29 colon): > 100 µM | TGI (SK-MEL-2 melanoma): > 100 µM | TGI (COLO 205 colon): > 100 µM | TGI (KM12 colon): > 100 µM | TGI (OVCAR-4 ovarian): > 100 µM | TGI (OVCAR-5 ovarian): > 100 µM | TGI (HCT-15 colon): > 100 µM | TGI (A498 renal): > 100 µM | TGI (MCF7 breast): > 100 µM | TGI (NCI-H226 lung): > 100 µM | TGI (NCI/ADR-RES ovarian): > 100 µM | TGI (MDA-MB-435): > 100 µM | TGI (UO-31 renal): > 100 µM | TGI (NCI-H522 lung): > 100 µM
